Biological target: T1, GST-tagged-Wee1 kinase (Homo sapiens, UniProt P30291)
T1 construct: purchased Carnabio 05-177
Assay: Wee1 time-resolved fluorescence equilibrium binding assay (displacement of Oregon Green-labeled ATP-competitive probe)
Details: TR-FRET probe displacement; 2 nM GST-Wee1, 300 nM probe, 1 hour incubation; read-out: Wee-1 binding (Ki nM)
Description: Wee1 kinase was assayed using a time-resolved fluorescence equilibrium binding assay monitoring displacement of a rapidly reversible Oregon Green-labeled ATP-competitive kinase probe (N-(2-(2-(2-(4-(4-(5-chloro-4-(2-(1-hydroxycyclobutyl)thiazol-5-yl)-1H-pyrrolo[2,3-b]pyridin-2-yl)phenyl)piperazin-1-yl)ethoxy)ethoxy)ethyl)-2′,7′-difluoro-3′,6′-dihydroxy-3-oxo-3H-spiro[isobenzofuran-1,9′-xanthene]-5-carboxamide) by competitive Wee1 inhibitors.

T1 sequence (P30291 whole entry): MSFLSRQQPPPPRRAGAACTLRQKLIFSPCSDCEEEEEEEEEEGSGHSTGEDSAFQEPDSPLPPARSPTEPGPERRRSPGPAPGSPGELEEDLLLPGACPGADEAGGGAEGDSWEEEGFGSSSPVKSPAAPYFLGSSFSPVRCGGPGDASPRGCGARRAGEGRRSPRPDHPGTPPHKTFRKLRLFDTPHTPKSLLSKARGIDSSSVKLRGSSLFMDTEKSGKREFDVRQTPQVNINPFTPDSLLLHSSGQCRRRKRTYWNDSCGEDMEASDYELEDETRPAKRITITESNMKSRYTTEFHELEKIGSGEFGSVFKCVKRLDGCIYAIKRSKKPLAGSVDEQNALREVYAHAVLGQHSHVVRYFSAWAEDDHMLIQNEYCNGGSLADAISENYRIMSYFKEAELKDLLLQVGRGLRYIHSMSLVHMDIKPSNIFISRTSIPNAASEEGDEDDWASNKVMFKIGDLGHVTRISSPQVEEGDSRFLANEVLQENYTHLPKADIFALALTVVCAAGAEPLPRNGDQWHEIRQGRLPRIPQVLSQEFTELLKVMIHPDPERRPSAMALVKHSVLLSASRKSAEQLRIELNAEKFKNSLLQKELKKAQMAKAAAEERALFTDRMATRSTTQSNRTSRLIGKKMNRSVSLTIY

C=CCN1c2ncccc2-c2nc(Nc3ccccc3)ncc2S1(=O)=O [Example 32, 6-allyl-N-phenyl-6H-pyrido[2,3-c]pyrimido[4,5-e][1,2]thiazin-2-amine 5,5-dioxide]
Ki: 1450 nM

C=CCN1c2ccccc2-c2nc(Nc3ccc(N4CCNCC4)cc3)ncc2S1(=O)=O [Example 25, 6-allyl-N-[4-(piperazin-1-yl)phenyl]-6H-pyrimido[5,4-c][2,1]benzothiazin-2-amine 5,5-dioxide]
Ki: 1.5 nM

CCCN1c2cc(C(N)=O)ccc2-c2nc(Nc3ccc(N4CCN(C)CC4)cc3)ncc2S1(=O)=O [Example 79, 2-{[4-(4-methylpiperazin-1-yl)phenyl]amino}-6-propyl-6H-pyrimido[5,4-c][2,1]benzothiazine-8-carboxamide 5,5-dioxide]
Ki: 6 nM

C=CCN1c2ncccc2-c2nc(Nc3ccc(OCCN(CC)CC)cc3)ncc2S1(=O)=O [Example 39, 6-allyl-N-{4-[2-(diethylamino)ethoxy]phenyl}-6H-pyrido[2,3-c]pyrimido[4,5-e][1,2]thiazin-2-amine 5,5-dioxide]
Ki: 15 nM

CCCN1c2ccc(-c3cccnc3)cc2-c2nc(Nc3ccc(N4CCN(C)CC4)cc3)ncc2S1(=O)=O [Example 98, N-[4-(4-methylpiperazin-1-yl)phenyl]-6-propyl-9-(pyridin-3-yl)-6H-pyrimido[5,4-c][2,1]benzothiazin-2-amine 5,5-dioxide]
Ki: 2.4 nM

CCCN1c2ccc(-c3cccc(C(=O)NC)c3)cc2-c2nc(Nc3ccc(N4CCN(C)CC4)cc3)ncc2S1(=O)=O [Example 100, N-methyl-3-(2-{[4-(4-methylpiperazin-1-yl)phenyl]amino}-5,5-dioxido-6-propyl-6H-pyrimido[5,4-c][2,1]benzothiazin-9-yl)benzamide]
Ki: 4 nM

C=CCN1c2ccccc2-c2nc(Nc3ccccc3)ncc2S1(=O)=O [Example 24, 6-allyl-N-phenyl-6H-pyrimido[5,4-c][2,1]benzothiazin-2-amine 5,5-dioxide]
Ki: 220 nM

C=CCN1c2ncccc2-c2nc(Nc3ccc(N4CCN(C)CC4)cn3)ncc2S1(=O)=O [Example 102, N-[5-(4-methylpiperazin-1-yl)pyridin-2-yl]-6-(prop-2-en-1-yl)-6H-pyrido[2,3-c]pyrimido[4,5-e][1,2]thiazin-2-amine 5,5-dioxide]
Ki: 210 nM

C=CCN1c2ccccc2-c2nc(Nc3ccc(-c4ccncc4)cc3)ncc2S1(=O)=O [Example 7, 6-allyl-N-[4-(pyridin-4-yl)phenyl]-6H-pyrimido[5,4-c][2,1]benzothiazin-2-amine 5,5-dioxide]
Ki: 1230 nM

COC(=O)c1ccc2c(c1)NS(=O)(=O)c1cnc(Nc3ccc(N4CCN(C)CC4)cc3)nc1-2 [Example 65, methyl 2-{[4-(4-methylpiperazin-1-yl)phenyl]amino}-6H-pyrimido[5,4-c][2,1]benzothiazine-8-carboxylate 5,5-dioxide]
Ki: 256 nM

CN1CCN(c2ccc(Nc3ncc4c(n3)-c3sccc3N(C)S4(=O)=O)cc2)CC1 [Example 55, 6-methyl-N-[4-(4-methylpiperazin-1-yl)phenyl]-6H-pyrimido[4,5-e]thieno[3,2-c][1,2]thiazin-2-amine 5,5-dioxide]
Ki: 8 nM

CCCN1c2ccccc2-c2nc(Nc3ccc(N4CCN(C)CC4)cc3)ncc2S1(=O)=O [Example 67, N-[4-(4-methylpiperazin-1-yl)phenyl]-6-propyl-6H-pyrimido[5,4-c][2,1]benzothiazin-2-amine 5,5-dioxide]
Ki: 4 nM

C=CCN1c2ccccc2-c2nc(Nc3ccc(N4CCCCC4)cc3)ncc2S1(=O)=O [Example 11, 6-allyl-N-[4-(piperidin-1-yl)phenyl]-6H-pyrimido[5,4-c][2,1]benzothiazin-2-amine 5,5-dioxide]
Ki: 31 nM

C=CCN1c2ccccc2-c2nc(Nc3ccc(N4CCN(C(C)=O)CC4)cc3)ncc2S1(=O)=O [Example 10, 1-(4-{4-[(6-allyl-5,5-dioxido-6H-pyrimido[5,4-c][2,1]benzothiazin-2-yl)amino]phenyl}piperazin-1-yl)ethanone]
Ki: 5 nM

C=CCN1c2ccccc2-c2nc(Nc3ccc4c(c3)CN(C)CC43CC3)ncc2S1(=O)=O [Example 28, 6-allyl-N-(2′-methyl-2′,3′-dihydro-1′H-spiro[cyclopropane-1,4′-isoquinolin]-7′-yl)-6H-pyrimido[5,4-c][2,1]benzothiazin-2-amine 5,5-dioxide]
Ki: 1.1 nM

COC(=O)c1ccc2c(c1)N(Cc1c(Cl)cccc1Cl)S(=O)(=O)c1cnc(Nc3ccc(N4CCN(C)CC4)cc3)nc1-2 [Example 95, methyl 6-(2,6-dichlorobenzyl)-2-{[4-(4-methylpiperazin-1-yl)phenyl]amino}-6H-pyrimido[5,4-c][2,1]benzothiazine-8-carboxylate 5,5-dioxide]
Ki: 591 nM

CCCN1c2cc(-n3cncn3)ccc2-c2nc(Nc3ccc(N4CCN(C)CC4)cc3)ncc2S1(=O)=O [Example 94, N-[4-(4-methylpiperazin-1-yl)phenyl]-6-propyl-8-(1H-1,2,4-triazol-1-yl)-6H-pyrimido[5,4-c][2,1]benzothiazin-2-amine 5,5-dioxide]
Ki: 7 nM

C=CCN1c2ccccc2-c2nc(Nc3ccc(N4CCN(C)CC4)cc3)ncc2S1(=O)=O [Example 1, 6-allyl-N-[4-(4-methylpiperazin-1-yl)phenyl]-6H-pyrimido[5,4-c][2,1]benzothiazin-2-amine 5,5-dioxide]
Ki: 1.8 nM

CCCN1c2cc(-c3ccc(C(N)=O)cc3)ccc2-c2nc(Nc3ccc(N4CCN(C)CC4)cc3)ncc2S1(=O)=O [Example 71, 4-(2-{[4-(4-methylpiperazin-1-yl)phenyl]amino}-5,5-dioxido-6-propyl-6H-pyrimido[5,4-c][2,1]benzothiazin-8-yl)benzamide]
Ki: 4 nM

CCCN1c2cc(-n3cccc3)ccc2-c2nc(Nc3ccc(N4CCN(C)CC4)cc3)ncc2S1(=O)=O [Example 93, N-[4-(4-methylpiperazin-1-yl)phenyl]-6-propyl-8-(1H-pyrrol-1-yl)-6H-pyrimido[5,4-c][2,1]benzothiazin-2-amine 5,5-dioxide]
Ki: 45 nM

C=CCN1c2ccccc2-c2nc(Nc3ccc4c(c3)CNCC4)ncc2S1(=O)=O [Example 26, 6-allyl-N-(1,2,3,4-tetrahydroisoquinolin-7-yl)-6H-pyrimdio[5,4-c][2,1]benzothiazin-2-amine 5,5-dioxide]
Ki: 1 nM

C=CCN1c2ccccc2-c2nc(Nc3ccc4c(c3)CCCC4)ncc2S1(=O)=O [Example 17, 6-allyl-N-(5,6,7,8-tetrahydronaphthalen-2-yl)-6H-pyrimido[5,4-c][2,1]benzothiazin-2-amine 5,5-dioxide]
Ki: 2040 nM

C=CCN1c2ncccc2-c2nc(Nc3ccc(C4CCNC4)cc3)ncc2S1(=O)=O (centres unmarked) [Example 45, 6-allyl-N-[4-(pyrrolidin-3-yl)phenyl]-6H-pyrido[2,3-c]pyrimido[4,5-e][1,2]thiazin-2-amine 5,5-dioxide]
Ki: 3 nM

C=CCN1c2ncccc2-c2nc(Nc3ccc4c(c3)CN(C)CC43CC3)ncc2S1(=O)=O [Example 47, 6-allyl-N-(2′-methyl-2′,3′-dihydro-1′H-spiro[cyclopropane-1,4′-isoquinolin]-7′-yl)-6H-pyrido[2,3-c]pyrimido[4,5-e][1,2]thiazin-2-amine 5,5-dioxide]
Ki: 1.3 nM

CCCN1c2cc(-c3ccc(C(=O)NC4CC4)cc3)ccc2-c2nc(Nc3ccc(N4CCN(C)CC4)cc3)ncc2S1(=O)=O [Example 72, N-cyclopropyl-4-(2-{[4-(4-methylpiperazin-1-yl)phenyl]amino}-5,5-dioxido-6-propyl-6H-pyrimido[5,4-c][2,1]benzothiazin-8-yl)benzamide]
Ki: 7 nM

C=CCN1c2ncccc2-c2nc(Nc3ccc(N4CCNCC4)cn3)ncc2S1(=O)=O [Example 103, N-[5-(piperazin-1-yl)pyridin-2-yl]-6-(prop-2-en-1-yl)-6H-pyrido[2,3-c]pyrimido[4,5-e][1,2]thiazin-2-amine 5,5-dioxide]
Ki: 110 nM

C=CCN1c2ncccc2-c2nc(Nc3ccc(N4CCNCC4)c(C)c3)ncc2S1(=O)=O [Example 42, 6-allyl-N-[3-methyl-4-(piperazin-1-yl)phenyl]-6H-pyrido[2,3-c]pyrimido[4,5-e][1,2]thiazin-2-amine 5,5-dioxide]
Ki: 2 nM

C=CCN1c2ccccc2-c2nc(Nc3ccncc3)ncc2S1(=O)=O [Example 27, 6-allyl-N-(pyridin-4-yl)-6H-pyrimido[5,4-c][2,1]benzothiazin-2-amine 5,5-dioxide]
Ki: 30 nM

CCCN1c2cc(-c3c[nH]c4ncccc34)ccc2-c2nc(Nc3ccc(N4CCN(C)CC4)cc3)ncc2S1(=O)=O [Example 77, N-[4-(4-methylpiperazin-1-yl)phenyl]-6-propyl-8-(1H-pyrrolo[2,3-b]pyridin-3-yl)-6H-pyrimido[5,4-c][2,1]benzothiazin-2-amine 5,5-dioxide]
Ki: 57 nM

C=CCN1c2cc(Br)ccc2-c2nc(Nc3ccc(N4CCN(C)CC4)cc3)ncc2S1(=O)=O [Example 64, 6-allyl-8-bromo-N-[4-(4-methylpiperazin-1-yl)phenyl]-6H-pyrimido[5,4-c][2,1]benzothiazin-2-amine 5,5-dioxide]
Ki: 2 nM

CCCN1c2cc(C(=O)NCCOC)ccc2-c2nc(Nc3ccc(N4CCN(C)CC4)cc3)ncc2S1(=O)=O [Example 85, N-(2-methoxyethyl)-2-{[4-(4-methylpiperazin-1-yl)phenyl]amino}-6-propyl-6H-pyrimido[5,4-c][2,1]benzothiazine-8-carboxamide 5,5-dioxide]
Ki: 5 nM

CCCN1c2cc(C(=O)OC)ccc2-c2nc(Nc3ccc(N4CCN(C)CC4)cc3)ncc2S1(=O)=O [Example 78, methyl 2-{[4-(4-methylpiperazin-1-yl)phenyl]amino}-6-propyl-6H-pyrimido[5,4-c][2,1]benzothiazine-8-carboxylate 5,5-dioxide]
Ki: 6 nM

Reference: patent US8716297B2, “Chemical entities to be used for Wee1 inhibition for the treatment of cancer” (AbbVie Inc., priority 2011, dated 2014)
